Results from patent publication US20120213789A1, “New Molecular Target for Treatment of Cancer” (priority 2001, published 2012).

Assays:
[1] = test system: C4-2B Metastatic Prostate Cell Line; test: UROC28/Fas label flow cytometry after SPB treatment; assay type: cell-based, human; settings: for Total Fas / Total UC2BC: section UROC28/Fas
Method: (§1) Cells were grown to 70-80% confluence at 37° C. and 5% CO2 in T-75 tissue culture plastic flasks. SPB stock solution was added to final concentrations of 0.5, 5.0, 10.0, and 25.0 mM in appropriate fresh media to the cell cultures. Cells were incubated at 37° C. and 5% CO2 for 72 hours. Attached cells were then harvested using a solution of 0.05% trypsin and 0.53 mM EDTA (Invitrogen Corp.). Attached cells were then pooled with any the detached cells and washed with PBS pH 7.2. Cell numbers and percent viability were determined using Trypan blue dye exclusion and a hemacytometer. At the time of their use in an experiment the viability was usually about 85% for untreated cells and a range of about 15-70% for treated cells, with the lower viabilities found at higher SPB concentrations (Thompson C, 1995; Cory et al., 1998; van Engeland et al., 1996).
UC28(C) is 2.14 mg/ml rabbit polyclonal aliquot directed against the inventors' UC28 patented biomarker developed by UCor R&D gene discovery program. The Antibody was produced against a twenty amino acid (AA) synthetic peptide from the predicted AA sequence (AA 21-37) UCor, Inc. 840 Research Parkway Oklahoma City, Okla. 73104.
Goat Anti-Rabbit CY5 polyclonal Fluorchrome was used as the secondary conjugate for UC28 C rabbit polyclonal antibody and a background control for UC28 C polyclonal. Vendor is Jackson ImmunoResearch Laboratories, Inc. 872 West Baltimore Pike, P.O. Box 9 West Grove, Pa. 19390.
CD45 (FAS) IgG1 kappa—(R-phycoerythrin (RPE) is purified monoclonal antibody conjugated with R-phycoerythrin (RPE) that is specific for the FAS protein. Vendor is Dalco Corporation 6392 Via Real, Carpinteria, Calif. 93013 USA MsIgG1 IgG1 kappa R-phycoerythrin (RPE) conjugated goat anti-mouse immunoglobulins is used for (FAS) antibody negative control. Vendor is Dako Corporation 6392 Via Real, Carpinteria, Calif. 93013 USA.
A Coulter Elite engineered with a triple laser system was used to analyze all samples. Coulter control beads were used to align lasers for the dual label testing of cell samples. Laser alignment was required for both the Argon (488 nm line) laser and HeNe (633 nm line) laser. These alignments were performed prior to all measurements with the Argon laser (488 nm line) using fluorophores for FITC, RPE, PI and the HeNe laser (633 nm line) for the Cy5 fluorophores being used for the experiments described below. The histographs, voltage settings, gates, color compensation, and pressures were established prior to all sample processing.
(a) Tissue culture cells (MLC-SV40, LNCaP and C 4-2B) were aliquoted at concentration of 1×10^6 per teach 12×75 mm polystyrene tube. […]

[2] = test system: MLC-SV40 immortalized normal cells; test: Dose-response kinetics of UC28 protein expression by flow cytometry; assay type: cell-based; settings: 0.5 to 25 mM SPB
Method: as §1, with “1996). UC28(C) is 2.14 mg/ml rabbit polyclonal aliquot directed against the inventors' UC28 patented biomarker developed by UCor R&D gene discovery program. The Antibody was produced against a […] (AA) synthetic peptide from the predicted AA sequence (AA 21-37) UCor, Inc. 840 Research Parkway Oklahoma City, Okla. 73104. Goat Anti-Rabbit CY5 polyclonal Fluorchrome was used as the secondary conjugate for UC28 C rabbit polyclonal antibody and a background control for UC28 C polyclonal. […]” for “1996).”

In the case of `O=C([O-])CCCc1ccccc1.[Na+]` [SPB, 4-Phenylbutyric Acid, Sodium Salt], the “Total Fas” value ([1]; 5.0 mM SPB) is reported as 3.6%, the “Total UC2BC” value ([1]; 5.0 mM SPB) is reported as 96.4% and the “Total Fas” value ([1]; 10 mM SPB) is reported as 6.1%. The “Total UC2BC” value ([1]; 10 mM SPB) was 94.0%, the Fas protein expression ([1]; SPB, summary of Table 7) was “markedly depressed” and the “UC28 membrane protein expression” value [2] was “do not over express”.
